pIC50: −log10 of the molar value. Values after ≈ are worked out from the molar mass of the structure shown. Values belong to the compound of their own block, whether it stands above or below them. Active and inactive are the calls of the source. The rule behind the calls is not given here.
Key:
Splenocyte = experiment: Immunosuppressant activity in mouse splenocytes by mixed-leukocyte reaction assay; type: functional, cell-based; conditions: for IC50: splenocyte; for pIC50: Mus musculus, Splenocyte, read-out: IC50
[1] = Solubility of the compound in presence of 20% serum; type: physicochemical
[2] = Immunosuppressant activity in chicken B-lymphocyte activated splenic lymphocytes assessed as inhibition of LPS-induced cell proliferation by [3H]thymidine incorporation assay; type: functional; conditions: Gallus gallus
[3] = Immunosuppressant activity in chicken T-lymphocyte activated splenic lymphocytes assessed as inhibition of ConA-induced cell proliferation by [3H]thymidine incorporation assay; type: functional; conditions: Gallus gallus
[4] = Antiproliferative activity against B cells; type: cell-based; conditions: b-cell
[5] = Antiproliferative activity against T cells; type: cell-based; conditions: t-cell
B-cell = experiment: Antiproliferative activity against LPS-induced B cells; type: functional, cell-based
T-cell = experiment: Antiproliferative activity against ConA-induced T cells; type: functional, cell-based
[6] = Antiproliferative activity against BMDM cells; type: cell-based
BMDM = experiment: Antiproliferative activity against LPS-induced BMDM cells; type: functional, cell-based
[7] = Antiproliferative activity against bone marrow-derived dendritic cells; type: cell-based; conditions: dendritic cell
Dendritic cell = experiment: Antiproliferative activity against LPS-induced bone marrow-derived dendritic cells; type: functional, cell-based
Mus musculus [8] = organism: Mus musculus; experiment: Immunosuppressant activity in C57BL/6 mouse assessed as inhibition of zymosan A-induced arthritis; type: functional, organism-based
Mus musculus [9] = experiment: Immunosuppressant activity in C57BL/6 mouse assessed as inhibition of carrageenan-induced paw edema; type: functional, organism-based
Mus musculus [10] = organism: Mus musculus; experiment: Immunosuppressant activity in C57BL/6 mouse assessed as inhibition of DNCB-induced cytokine release by local lymph node assay; type: functional, organism-based
[11] = Tmax in BALB/c mouse at 1 mg/kg, po; type: ADME, organism-based; set-up: dose 1 mg/kg, route oral; conditions: in vivo
[12] = Cmax in BALB/c mouse at 1 mg/kg, po; type: ADME, organism-based; set-up: dose 1 mg/kg, route oral; conditions: in vivo
[13] = AUC (0 to infinity) in BALB/c mouse at 0.5 mg/kg, iv; type: ADME, organism-based; set-up: time infinity, dose 0.5 mg/kg, route intravenous; conditions: plasma
[14] = AUC (0 to infinity) in BALB/c mouse at 1 mg/kg, po; type: ADME, organism-based; set-up: time infinity, dose 1 mg/kg, route oral; conditions: plasma
[15] = Clearance in BALB/c mouse at 0.5 mg/kg, iv; type: ADME, organism-based; set-up: dose 0.5 mg/kg, route intravenous; conditions: in vivo
[16] = Volume of distribution at steady state in BALB/c mouse at 0.5 mg/kg, iv; type: ADME, organism-based; set-up: dose 0.5 mg/kg, route intravenous; conditions: in vivo, read-out: Vdss
[17] = Half life in BALB/c mouse at 0.5 mg/kg, iv; type: ADME, organism-based; set-up: dose 0.5 mg/kg, route intravenous; conditions: in vivo
[18] = Half life in BALB/c mouse at 1 mg/kg, po; type: ADME, organism-based; set-up: dose 1 mg/kg, route oral; conditions: in vivo
[19] = Mean residence time (infinity) in BALB/c mouse at 0.5 mg/kg, iv; type: ADME, organism-based; set-up: dose 0.5 mg/kg, route intravenous; conditions: in vivo
[20] = Mean residence time (infinity) in BALB/c mouse at 1 mg/kg, po; type: ADME, organism-based; set-up: dose 1 mg/kg, route oral; conditions: in vivo
[21] = Oral bioavailability in BALB/c mouse at 1 mg/kg; type: ADME, organism-based; conditions: in vivo

Compound: COc1cc2c(c(OC)c1OC)-c1ccc(SC)c(=O)cc1[C@@H](NC(=O)C1NC1C)CC2 (stereo not given in full)
- pIC50 (Splenocyte): 7.34

Compound: C=C(CC)C(=O)N[C@H]1CCc2cc(OC)c(OC)c(OC)c2-c2ccc(SC)c(=O)cc21
- pIC50 (Splenocyte): 7.07

Compound: C/C=C/C(=O)N[C@H]1CCc2cc(OC)c(OC)c(OC)c2-c2ccc(SC)c(=O)cc21
- pIC50 (Splenocyte): 7.17

Compound: COc1cc2c(c(OC)c1OC)-c1ccc(OC)c(=O)cc1[C@@H](NC(C)=O)CC2 [COLCHICINE]
- solubility [1]: 300 µM

Compound: COc1cc2c(c(OC)c1OC)-c1ccc(SC)c(=O)cc1[C@@H](NC(=O)c1cccc(CO[N+](=O)[O-])c1)CC2
- solubility [1]: 10 µM

Compound: COc1cc2c(c(OC)c1OC)-c1ccc(SC)c(=O)cc1[C@@H](NC(=O)C1C(C)N1C)CC2 (stereo not given in full)
- pIC50 (Splenocyte): 7.42

Compound: COc1cc2c(c(OC)c1OC)-c1ccc(SC)c(=O)cc1[C@@H](NC(=O)C1OC1C)CC2 (mixture of isomers)
- pIC50 (Splenocyte): 6.92

Compound: COc1cc2c(c(OC)c1OC)-c1ccc(SC)c(=O)cc1[C@@H](NC(=O)C1CC1C)CC2 (stereo not given in full)
- pIC50 (Splenocyte): 8.30
- IC50 [2]: 5.9 ng/mL (≈ 0.013 µM)
- IC50 [3]: 0.031 µg/mL (≈ 0.068 µM)
- Activity [4]: Non-toxic
- Activity [5]: Non-toxic
- Activity (B-cell): Active
- Activity (T-cell): Active
- Activity [6]: Non-toxic
- Activity (BMDM): Active
- Activity [7]: Non-toxic
- Activity (Dendritic cell): Active
- inhibition (Mus musculus [8]): Dose-dependent effect
- inhibition (Mus musculus [9]): Dose-dependent effect
- inhibition (Mus musculus [10]): Active
- Tmax [11]: 15 min
- Cmax [12]: 254 ng/mL
- AUC(0-inf) [13]: 200 ng·h/mL
- AUC(0-inf) [14]: 269 ng·h/mL
- clearance [15]: 41.7 mL/min/kg
- Vd [16]: 1.6 L/kg
- half-life [17]: 174 min
- half-life [18]: 174 min
- MRT inf [19]: 36 min
- MRT inf [20]: 2.2 h
- bioavailability [21]: 67.3%

Now from value to compound, other results behind:

- IC50 (Splenocyte): Not Active
Compound: COc1cc2c(c(OC)c1OC)-c1ccc(SC)c(=O)cc1[C@H](NC(=O)C1CC1C)CC2 (stereo not given in full)

- IC50 (Splenocyte): Not Active
Compound: COc1cc2c(c(OC)c1OC)-c1cccc(=O)cc1[C@@H](NC(=O)C1CC1C)CC2 (stereo not given in full)

- pIC50 (Splenocyte): 5.90
Compound: COc1cc2c(c(OC)c1OC)-c1ccc(OC)c(=O)cc1[C@@H](NC(=O)C1CC1C)CC2 (stereo not given in full)

- pIC50 (Splenocyte): 5.78
Compound: C/C=C/CC(=O)N[C@H]1CCc2cc(OC)c(OC)c(OC)c2-c2ccc(SC)c(=O)cc21

- IC50 (Splenocyte): Not Active
Compound: COc1cc2c(c(OC)c1OC)-c1ccc([S+](C)[O-])c(=O)cc1[C@@H](NC(=O)C1CC1C)CC2 (stereo not given in full)

- pIC50 (Splenocyte): 6.15
Compound: C=CCC(=O)N[C@H]1CCc2cc(OC)c(OC)c(OC)c2-c2ccc(SC)c(=O)cc21

- IC50 (Splenocyte): Not Active
Compound: COc1cc2c(c(OC)c1OC)-c1ccc(S(C)(=O)=O)c(=O)cc1[C@@H](NC(=O)C1CC1C)CC2 (stereo not given in full)

- pIC50 (Splenocyte): 8.40
Compound: C/C=C/C=C/C(=O)N[C@H]1CCc2cc(OC)c(OC)c(OC)c2-c2ccc(SC)c(=O)cc21
- IC50 [2]: 5.7 ng/mL (≈ 0.0122 µM)
- IC50 [3]: 0.0407 µg/mL (≈ 0.087 µM)

- solubility [1]: 100 µM
Compound: COc1cc2c(c(OC)c1OC)-c1ccc(SC)c(=O)cc1[C@@H](NC(=O)CCCO[N+](=O)[O-])CC2

- pIC50 (Splenocyte): 6.95
Compound: C=CC(=C)C(=O)N[C@H]1CCc2cc(OC)c(OC)c(OC)c2-c2ccc(SC)c(=O)cc21

- pIC50 (Splenocyte): 7.51
Compound: C=C(C)/C=C(\CC)C(=O)N[C@H]1CCc2cc(OC)c(OC)c(OC)c2-c2ccc(SC)c(=O)cc21

— ChEMBL document CHEMBL2163345, “Part II. Development of novel colchicine-derived immunosuppressants with improved pharmacokinetic properties” (Bioorg Med Chem Lett, 2012)
